According to ChEMBL document CHEMBL1909046, “DrugMatrix in vitro pharmacology data”:

Assays:
[1] = biological target: T1, Muscarinic acetylcholine receptor M2 (Homo sapiens, UniProt P08172); format: cell membranes, CHO-K1, Membrane; settings: cho-k1; further: in other assays of this panel Not Active means under 50% inhibition at 10 µM
T1 sequence (P08172 whole entry): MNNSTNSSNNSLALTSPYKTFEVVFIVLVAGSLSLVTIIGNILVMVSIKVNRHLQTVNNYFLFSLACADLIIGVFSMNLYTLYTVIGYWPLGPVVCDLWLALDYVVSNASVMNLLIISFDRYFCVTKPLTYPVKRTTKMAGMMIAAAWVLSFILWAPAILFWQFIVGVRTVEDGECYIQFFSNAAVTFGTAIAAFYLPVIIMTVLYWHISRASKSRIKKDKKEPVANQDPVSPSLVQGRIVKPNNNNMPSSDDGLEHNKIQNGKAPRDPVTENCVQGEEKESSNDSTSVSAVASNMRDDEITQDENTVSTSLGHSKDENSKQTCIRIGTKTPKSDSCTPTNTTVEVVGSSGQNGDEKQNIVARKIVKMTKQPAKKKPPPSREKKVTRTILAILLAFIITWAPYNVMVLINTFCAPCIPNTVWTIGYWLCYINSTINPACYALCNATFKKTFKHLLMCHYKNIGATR

[2] = biological target: Delta-type opioid receptor (Homo sapiens, UniProt P41143); format: cell membranes, HEK293, Membrane; settings: hek293; further: in other assays of this panel Not Active means under 50% inhibition at 10 µM
Delta-type opioid receptor, sequence (P41143 whole entry): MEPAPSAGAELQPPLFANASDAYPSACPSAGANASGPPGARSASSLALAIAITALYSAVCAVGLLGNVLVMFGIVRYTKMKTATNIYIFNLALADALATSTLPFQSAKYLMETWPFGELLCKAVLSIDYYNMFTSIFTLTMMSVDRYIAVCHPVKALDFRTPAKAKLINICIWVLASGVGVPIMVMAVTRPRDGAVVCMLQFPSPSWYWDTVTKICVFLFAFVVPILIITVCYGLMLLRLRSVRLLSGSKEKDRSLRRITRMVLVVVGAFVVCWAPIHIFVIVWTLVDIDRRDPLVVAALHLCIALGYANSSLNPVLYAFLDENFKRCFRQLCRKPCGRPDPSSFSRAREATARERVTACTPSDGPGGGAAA

Progesterone receptor = biological target: T2, Progesterone receptor (Bos taurus, UniProt Q690N0); experiment: DRUGMATRIX: Progesterone radioligand binding (ligand: [3H] R-5020); format: tissue-based, Uterus; settings: Not Active = under 50% inhibition at 10 µM
T2 sequence (Q690N0 whole entry): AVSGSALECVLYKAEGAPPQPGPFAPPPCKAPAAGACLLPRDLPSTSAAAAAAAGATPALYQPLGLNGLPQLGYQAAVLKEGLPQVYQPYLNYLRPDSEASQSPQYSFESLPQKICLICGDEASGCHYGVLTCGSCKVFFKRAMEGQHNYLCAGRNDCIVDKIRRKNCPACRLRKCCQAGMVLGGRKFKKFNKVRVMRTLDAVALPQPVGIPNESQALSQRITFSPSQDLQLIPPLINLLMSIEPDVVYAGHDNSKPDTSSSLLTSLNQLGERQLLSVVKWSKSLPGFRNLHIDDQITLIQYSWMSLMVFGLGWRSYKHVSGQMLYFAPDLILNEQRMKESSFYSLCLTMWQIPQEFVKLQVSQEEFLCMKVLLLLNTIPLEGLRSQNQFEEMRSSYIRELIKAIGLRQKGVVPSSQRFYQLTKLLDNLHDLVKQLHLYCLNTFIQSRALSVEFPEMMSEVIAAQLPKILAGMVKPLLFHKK

[3] = biological target: Protein kinase C alpha type (Homo sapiens, UniProt P17252); format: cell-based; settings: sf9;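 further: inhibition of PKCalpha kinase activity measured in an enzyme assay with histone as the phosphorylation substrate; in other assays of this panel Not Active means under 50% inhibition at 10 µM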
[4] = biological target: Epidermal growth factor receptor (Homo sapiens, UniProt P00533); experiment: DRUGMATRIX: Protein Tyrosine Kinase, EGF Receptor enzyme inhibition (substrate: Poly(Glu:Tyr)); format: cell-based, Insect cells; settings: insect cells; Not Active = under 50% inhibition at 10 µM
Epidermal growth factor receptor, sequence (P00533 whole entry): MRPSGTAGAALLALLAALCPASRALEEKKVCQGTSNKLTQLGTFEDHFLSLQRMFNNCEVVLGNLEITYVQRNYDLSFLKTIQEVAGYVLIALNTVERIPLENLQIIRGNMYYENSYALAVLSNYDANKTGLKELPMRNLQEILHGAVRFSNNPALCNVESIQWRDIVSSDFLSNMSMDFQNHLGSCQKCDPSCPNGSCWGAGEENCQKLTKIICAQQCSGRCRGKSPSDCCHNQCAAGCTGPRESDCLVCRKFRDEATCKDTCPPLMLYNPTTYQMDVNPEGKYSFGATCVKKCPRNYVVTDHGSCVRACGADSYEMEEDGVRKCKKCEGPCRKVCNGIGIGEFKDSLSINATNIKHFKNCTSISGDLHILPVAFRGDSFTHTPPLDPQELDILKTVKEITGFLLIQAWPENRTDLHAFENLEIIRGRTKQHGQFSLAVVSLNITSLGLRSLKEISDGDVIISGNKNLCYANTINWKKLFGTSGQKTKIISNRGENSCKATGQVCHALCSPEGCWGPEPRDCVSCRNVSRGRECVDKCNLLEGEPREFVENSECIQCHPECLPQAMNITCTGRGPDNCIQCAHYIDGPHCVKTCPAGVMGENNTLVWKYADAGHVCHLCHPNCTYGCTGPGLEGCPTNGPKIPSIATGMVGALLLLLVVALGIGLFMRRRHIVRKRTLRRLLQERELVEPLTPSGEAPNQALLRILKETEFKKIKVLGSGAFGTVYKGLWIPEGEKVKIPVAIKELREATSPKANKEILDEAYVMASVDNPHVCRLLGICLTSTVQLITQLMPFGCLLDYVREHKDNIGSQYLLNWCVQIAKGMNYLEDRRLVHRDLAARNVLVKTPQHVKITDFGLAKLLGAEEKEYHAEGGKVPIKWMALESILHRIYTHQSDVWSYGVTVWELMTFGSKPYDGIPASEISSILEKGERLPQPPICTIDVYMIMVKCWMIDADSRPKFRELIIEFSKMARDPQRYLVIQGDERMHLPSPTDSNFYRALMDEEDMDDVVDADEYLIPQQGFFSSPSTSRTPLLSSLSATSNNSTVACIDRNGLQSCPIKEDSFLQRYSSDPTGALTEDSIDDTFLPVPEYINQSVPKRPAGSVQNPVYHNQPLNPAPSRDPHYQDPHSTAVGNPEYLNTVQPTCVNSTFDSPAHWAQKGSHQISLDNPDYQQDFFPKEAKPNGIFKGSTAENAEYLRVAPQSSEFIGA

Cytochrome P450 2C19 = Cytochrome P450 2C19 (Homo sapiens, UniProt P33261); settings: bti-tn-5b1-4; further: in other assays of this panel Not Active means under 50% inhibition at 10 µM
Cytochrome P450 2C19, sequence (P33261 whole entry): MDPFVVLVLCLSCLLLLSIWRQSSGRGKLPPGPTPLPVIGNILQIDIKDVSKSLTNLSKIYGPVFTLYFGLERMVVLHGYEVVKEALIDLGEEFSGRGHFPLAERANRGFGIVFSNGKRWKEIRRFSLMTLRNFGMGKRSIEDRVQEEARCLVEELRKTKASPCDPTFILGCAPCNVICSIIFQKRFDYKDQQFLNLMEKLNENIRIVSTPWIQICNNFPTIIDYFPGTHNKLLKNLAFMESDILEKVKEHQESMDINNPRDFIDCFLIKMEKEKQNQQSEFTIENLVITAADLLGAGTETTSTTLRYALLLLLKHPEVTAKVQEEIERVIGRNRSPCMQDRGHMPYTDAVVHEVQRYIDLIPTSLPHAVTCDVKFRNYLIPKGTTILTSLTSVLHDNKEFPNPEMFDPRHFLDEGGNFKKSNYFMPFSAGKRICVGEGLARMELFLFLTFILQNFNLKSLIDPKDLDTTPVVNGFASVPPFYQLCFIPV

C[C@H]1C[C@H]2[C@@H]3CCC4=CC(=O)C=C[C@]4(C)[C@@]3(Cl)[C@@H](O)C[C@]2(C)[C@@]1(O)C(=O)CO [BECLOMETHASONE]
Not Active: IC50 [1] | IC50 [2] | IC50 (Progesterone receptor) | IC50 [3] | IC50 [4] | IC50 (Cytochrome P450 2C19) | Ki (Cytochrome P450 2C19)

CCOC(=O)[C@H](CCc1ccccc1)N[C@H]1CCc2ccccc2N(CC(=O)O)C1=O [BENAZEPRIL]
Not Active: IC50 [1] | IC50 [2] | IC50 (Progesterone receptor) | IC50 [3] | IC50 [4] | IC50 (Cytochrome P450 2C19) | Ki (Cytochrome P450 2C19)

Nc1c(CC(=O)O)cccc1C(=O)c1ccc(Br)cc1 [BROMFENAC]
Not Active: IC50 [1] | IC50 [2] | IC50 (Progesterone receptor) | IC50 [3] | IC50 [4] | IC50 (Cytochrome P450 2C19) | Ki (Cytochrome P450 2C19)

CCCCN1CCCCC1C(=O)Nc1c(C)cccc1C.Cl (stereo not drawn) [BUPIVACAINE HYDROCHLORIDE]
Not Active: IC50 [1] | IC50 [2] | IC50 (Progesterone receptor) | IC50 [3] | IC50 [4] | IC50 (Cytochrome P450 2C19) | Ki (Cytochrome P450 2C19)

O=C1CC2(CCCC2)CC(=O)N1CCCCN1CCN(c2ncccn2)CC1 [BUSPIRONE]
Not Active: IC50 [1] | IC50 [2] | IC50 (Progesterone receptor) | IC50 [3] | IC50 [4] | IC50 (Cytochrome P450 2C19) | Ki (Cytochrome P450 2C19)

C[C@@]12C(=O)OC(=O)[C@]1(C)[C@H]1CC[C@@H]2O1 [CANTHARIDIN]
Not Active: IC50 [1] | IC50 [2] | IC50 (Progesterone receptor) | IC50 [3] | IC50 [4] | IC50 (Cytochrome P450 2C19) | Ki (Cytochrome P450 2C19)

ClC(Cl)Cl [CHLOROFORM]
Not Active: IC50 [1] | IC50 [2] | IC50 (Progesterone receptor) | IC50 [3] | IC50 [4] | IC50 (Cytochrome P450 2C19) | Ki (Cytochrome P450 2C19)

C[N+](C)(C)CCO.[Cl-] [CHOLINE CHLORIDE]
Not Active: IC50 [1] | IC50 [2] | IC50 (Progesterone receptor) | IC50 [3] | IC50 [4] | IC50 (Cytochrome P450 2C19) | Ki (Cytochrome P450 2C19)

CC(=O)OCC(=O)[C@@]1(O)CC[C@H]2[C@@H]3CCC4=CC(=O)CC[C@]4(C)[C@H]3C(=O)C[C@@]21C [CORTISONE ACETATE]
Not Active: IC50 [1] | IC50 [2] | IC50 (Progesterone receptor) | IC50 [3] | IC50 [4] | IC50 (Cytochrome P450 2C19) | Ki (Cytochrome P450 2C19)

O=c1ccc2ccccc2o1 [COUMARIN]
Not Active: IC50 [1] | IC50 [2] | IC50 (Progesterone receptor) | IC50 [3] | IC50 [4] | IC50 (Cytochrome P450 2C19) | Ki (Cytochrome P450 2C19)

CN(C)/N=N/c1[nH]cnc1C(N)=O [DACARBAZINE]
Not Active: IC50 [1] | IC50 [2] | IC50 (Progesterone receptor) | IC50 [3] | IC50 [4] | IC50 (Cytochrome P450 2C19) | Ki (Cytochrome P450 2C19)

COc1ccc2c(c1)[C@]13CCCC[C@@H]1[C@H](C2)N(C)CC3 [DEXTROMETHORPHAN]
Not Active: IC50 [1] | IC50 [2] | IC50 (Progesterone receptor) | IC50 [3] | IC50 [4] | IC50 (Cytochrome P450 2C19) | Ki (Cytochrome P450 2C19)

CC(=O)Nc1c(I)c(NC(C)=O)c(I)c(C(=O)O)c1I [DIATRIZOIC ACID]
Not Active: IC50 [1] | IC50 [2] | IC50 (Progesterone receptor) | IC50 [3] | IC50 [4] | IC50 (Cytochrome P450 2C19) | Ki (Cytochrome P450 2C19)

COP(=O)(OC)OC=C(Cl)Cl [DICHLORVOS]
Not Active: IC50 [1] | IC50 [2] | IC50 (Progesterone receptor) | IC50 [3] | IC50 [4] | IC50 (Cytochrome P450 2C19) | Ki (Cytochrome P450 2C19)
